What was measured:
plasmin/α2-antiplasmin = experiment: Plasmin activity by fibrinogen zymography of plasma, mouse cerebral infarction model; format: in vivo; details: 10 mg/kg 1 hour after ischemia, mean ± SE, n=6
Procedure: The quantity of plasmin/α2-antiplasmin in plasma was measured by a fibrinogen zymography method for evaluating the plasmin activity, when a triprenyl phenol compound was administered to a mouse cerebral infarction model. As triprenyl phenol compounds, SMTP-7, SMTP-6, SMTP-22, SMTP-25, SMTP-43, and SMTP-44D were used.
The triprenyl phenol compounds were prepared same as in Example 2 and Example 5. The administration of 10 mg/kg of a triprenyl phenol compound was initiated 1 hour after the initiation of ischemia. The administration method was same as Example 3. Six mice were used for each condition.
A blood sample was taken according to the following method at 3 time points, namely after the completion of the administration 0 hour (immediately after the completion), 1 hour, and 3 hours. Under anesthesia with 1 to 1.5% isoflurane, the […] and 90 μL of blood was withdrawn from the abdominal vena cava into a syringe containing 10 μL of sodium citrate (3.8%) (sodium citrate:blood=1:9, final concentration of sodium citrate 0.38%).
After collection the blood was centrifuged (5000 rpm, 15 min, 4° C.) to separate plasma. A part of the plasma was mixed with equal quantity of a sample buffer (125 mM Tris-HCl (pH 6.8), 4% (w/v) SDS, 0.04% (w/v) bromophenol blue, 20% (w/v) sucrose), which was then divided into small fractions, and cryopreserved.
A part of the plasma was reserved and diluted 300-fold with 0.1 N NaOH and the protein content was determined by the Bradford method in order to even out the protein mass to be applied to an electrophoresis gel.
As the standard sample, a sample was prepared by reacting 10 μL of 120 nM plasmin (by SIGMA) and 10 μL of 600 nM α2-antiplasmin (by Wako Pure Chemical Industries, Ltd.) at 37° C. for 30 min, and mixing the same with 20 μL of the sample buffer.
An electrophoresis gel was prepared by overlaying a stacking gel on a 7.5% running gel containing 2 mg/mL fibrinogen (by SIGMA). Based on the determined protein mass, 3 to 15 μL of the sample was applied, so that the equal amount of protein was applied.
After electrophoresis at 10 mA/sheet, for 3 hours the stacking gel was removed and rinsed for 30 min twice with about 100 mL/gel of a rinse liquid (2.5% Triton X-100). After rinsing, incubation was carried out at 37° C. for 24 to 60 hours under gentle shaking with about 100 mL/sheet of an incubation buffer (0.1 M glycine-50 mM Tris-HCl, pH 8.3 at 37° C.).
Thereafter the gel was stained by a stain solution (0.075% CBB 8250, 22.5% methanol, 2.25% sulfosalicylic acid dihydrate, 7.5% trichloroacetic acid) at room temperature for 15 to 30 min with gentle shaking. Removing the stain solution, the gel was decolored by a decoloring solution (methanol:acetic acid:water=1:1:6), which was replaced with water at an appropriate time point according to appearance of bands observed.
The image on the gel was read in by an imaging analyzer (Printgraph (AE-6933FXCF), by ATTO) and the band intensity was evaluated. The results are expressed as a ratio to the value of the control group at 0 hour after the completion of the administration (immediately after the completion).

cerebral blood flow = experiment: Cerebral blood flow by laser-Doppler in mouse cerebral infarction model; format: in vivo; details: mean ± SE, n=3
Procedure: The improvement effectiveness of SMTP-7 and alteplase on the cerebral blood flow was compared using the mouse cerebral infarction model.
SMTP-7 and alteplase were prepared as in Example 2. SMTP-7 and alteplase were administered in an amount of 10 mg/kg into the femoral vein 1 hour after the initiation of ischemia in a mouse cerebral infarction model, wherein 10% was administered by a bolus administration, and the rest by continuous administration over 30 min. Three mice were used for each condition.
The cerebral blood flow was measured at 6 time points, namely before the initiation of ischemia, immediately after the initiation of ischemia, and after the completion of the drug administration 0 hour (immediately after the completion), 1 hour, 3 hours, and 24 hours.
The cerebral blood flow measurement was conducted by cutting the head skin of a mouse to expose the cranial bone, and measuring the blood flow of the whole brain surfaces by a laser-Doppler apparatus (moorFLPI, Moor Instruments Ltd, UK). The analysis was conducted using moorFLPI (Version 2.1) by rating percentage (%) relative to the value before the initiation of ischemia of each group.

[1] = plasma 0 hr after completion of administration
[2] = plasma 1 hr after completion of administration
[3] = plasma 3 hr after completion of administration
[4] = 10 mg/kg 1 hour after ischemia, 0 hr after completion of administration
[5] = 10 mg/kg 1 hour after ischemia, 1 hr after completion of administration
[6] = 10 mg/kg 1 hour after ischemia, 3 hr after completion of administration
[7] = 10 mg/kg 1 hour after ischemia, 24 hr after completion of administration
[8] = immediately after initiation of ischemia (before drug administration), group later given 10 mg/kg

Molecule | plasmin activity (plasmin/α2-antiplasmin band intensity), ratio to control group at 0 hour (plasmin/α2-antiplasmin; [1]) | plasmin activity (plasmin/α2-antiplasmin band intensity), ratio to control group at 0 hour (plasmin/α2-antiplasmin; [2]) | plasmin activity (plasmin/α2-antiplasmin band intensity), ratio to control group at 0 hour (plasmin/α2-antiplasmin; [3]) | cerebral blood flow relative to the value before the initiation of ischemia (cerebral blood flow; [4]) | cerebral blood flow relative to the value before the initiation of ischemia (cerebral blood flow; [5]) | cerebral blood flow relative to the value before the initiation of ischemia (cerebral blood flow; [6]) | cerebral blood flow relative to the value before the initiation of ischemia (cerebral blood flow; [7]) | cerebral blood flow relative to the value before the initiation of ischemia (cerebral blood flow; [8])
CC(C)=CCC/C(C)=C/CCC1(C)Oc2c(c(O)cc3c2CN(C(Cc2c[nH]c4ccccc24)C(=O)O)C3=O)CC1O (stereo not shown) [SMTP-6] | 1.08 ± 0.12 | 1.17 ± 0.14 | 1.68 ± 0.10 |  |  |  |  | 
CC(C)=CCC/C(C)=C/CC[C@@]1(C)Oc2c(c(O)cc3c2CN(CCC[C@@H](C(=O)O)N2Cc4c(cc(O)c5c4O[C@](C)(CC/C=C(\C)CCC=C(C)C)[C@@H](O)C5)C2=O)C3=O)C[C@@H]1O [SMTP-7] | 1.49 ± 0.13 | 3.23 ± 0.47 | 3.27 ± 0.67 | 43.74 ± 12.67% | 44.48 ± 12.59% | 48.90 ± 15.89% | 76.01 ± 9.71% | 34.17 ± 5.22%
alteplase [reference compound] |  |  |  | 56.45 ± 14.70% | 73.49 ± 20.33% | 66.83 ± 11.10% | 71.63 ± 6.06% | 27.30 ± 2.35%

From patent USRE49351E1, “Cytoprotective agent” (Biogen MA Inc., priority 2009, dated 2023)
